# Laboratory results taken from patent US20110009628A1, “Compounds and Compositions for Modulating Lipid Levels and Methods of Preparing Same” (priority 2009, published 2011).
# Key:
# Assay type in all cases: cell-based, human
# [1] = system: LDLR mRNA expression in HepG2 cells; assay: LDLR mRNA expression in HepG2 cells, quantitative real-time RT-PCR (Example 12); details: 24 hours; for fold induction at 10 µM / fold induction at 40 µM: Homo sapiens; for fold induction at 10 µM: read-out: Activity on LDLR mRNA at 10 uM (fold of control); for fold induction at 40 µM: read-out: Activity on LDLR mRNA at 40 uM (fold of control)
# Protocol: (§1) The effects of compounds on the mRNA expressions of LDLR and PCSK9 were examined using quantitative real-time RT-PCR assays. HepG2 cells were treated with various compounds at 10 and 40 uM concentrations for 24 hours. Total RNA was isolated and […] was used to generate cDNA in a reaction containing random primers and M-MLV at 37° C. for 1 h in a volume of 25 μL. Real-time PCR was performed on the cDNA using MCEP REALPLEX 2 SYSTEM (Eppendorf) and Universal MasterMix (Applied Biosystems). Human LDLR, PCSK9, and GAPDH Pre-Developed TaqMan Assay Reagents (Applied Biosystems) were used to assess the levels of mRNA expressions in HepG2. The levels of LDLR and PCSK9 mRNA were normalized to that of GAPDH. Each RNA samples was assayed in duplicate. The fold activity was calculated by dividing mRNA abundance in compound treated cells with that of control.
# [2] = system: PCSK9 mRNA expression in HepG2 cells; assay: PCSK9 mRNA expression in HepG2 cells, quantitative real-time RT-PCR (Example 12); details: 24 hours
# Protocol: as §1
# [3] = system: LDL ligand uptake activity in HepG2 cells; assay: DiI-LDL uptake in HepG2 cells (Example 12)
# Protocol: The combined beneficial effects of these novel compounds on elevation of LDLR mRNA levels likely through the mechanism of mRNA stabilization and their inhibitory activity towards PCSK9, the secreted protease that degrades LDLR protein, result in strong increases in LDL ligand uptake activity through increased receptor surface abundance. […] Briefly, HepG2 cells (2×10^5 cells/well) in 24-well culture plates were treated with various compounds at 10 and 40 uM concentrations for 20 hours. The fluorescent 1.1′-dioctadecyl-3,3,3′,3′-tetramethylindocarbocyanin perchlorate (DiI-LDL) (Biomedical Technologies, Stoughton, Mass.) at a concentration of 2 μg/ml was added to cells at the end of treatment. After 4 hours, the medium was removed; cells were washed with cold PBS, and were examined immediately under a fluorescent microscope (Nikon) at 200× amplification. The fluorescent intensity in compound-treated cells was compared to that in untreated control cells. […]
# [4] = 10 uM, 20 hours (first symbol of cell)
# [5] = 40 uM, 20 hours (second symbol of cell)
Compound,fold induction at 10 µM ([1]; 10 uM),fold induction at 40 µM ([1]; 40 uM),PCSK9 mRNA level at 10 uM (fold of control) [2],Activity on PCSK9 mRNA reduction at 40 uM (fold of control) [2],"Activity in LDL uptake (relative to control) [3, 4]","Activity in LDL uptake (relative to control) [3, 5]","PCSK9 mRNA expression, in words ([2]; 10 and 40 uM)",Activity on LDLR mRNA at 10 uM (fold of control) ([1]; 10 uM),Activity on LDLR mRNA at 40 uM (fold of control) ([1]; 40 uM)
"CCOc1ccc2c(c1)CCN1Cc3c(ccc(OC)c3OS(=O)(=O)c3ccccc3)CC21 (centres unmarked) [Compound 133, 3-Ethoxy-10-methoxy-5,6,7,8,13,13a-hexahydroisoquinolino[2,1-b]isoquinolin-9-yl benzenesulfonate]",4.92,6.61 ± 0.16,1.04 ± 0.08 fold of control,0.49 ± 0.01 fold of control,++,+,–,–,–
"COc1cc2c(cc1OCC(=O)O)C1Cc3ccc(OC)c(OS(=O)(=O)c4ccccc4)c3CN1CC2 (centres unmarked) [Compound 144, 2-[3,10-dimethoxy-9-(phenylsulfonyloxy)-5,6,7,8,13,13a-hexahydroisoquinolino[3,2-a]isoquinolin-2-yloxy]acetic acid]",1.02 ± 0.09,2.69 ± 0.31,0.99 ± 0.09 fold of control,1.84 ± 0.15 fold of control,–,–,–,–,–
"COc1ccc2c(c1)CCN1Cc3c(OS(=O)(=O)c4cccc(F)c4)ccc(Br)c3CC21 (centres unmarked) [Compound 149, 12-bromo-3-methoxy-5,6,7,8,13,13a-hexahydroisoquinolino[2,1-b]isoquinolin-9-yl 3-fluorobenzenesulfonate]",–,–,–,–,+/+,+/+,–,–,–
"COc1cc2c(cc1OCCO)CCN1Cc3c(ccc(OC)c3OS(=O)(=O)c3ccccc3)CC21 (centres unmarked) [Compound 138, 3-(2-Hydroxyethoxy)-2,10-dimethoxy-5,6,7,8,13,13a-hexahydroisoquinolino[2,1-b]isoquinolin-9-yl benzenesulfonate]",1.6 ± 0.29,2.45 ± 0.2,0.63 ± 0.14 fold of control,0.35 ± 0.02 fold of control,+,+++,–,–,–
"COc1ccc2c(c1OS(=O)(=O)c1ccccc1)CN1CCc3cc(OCCO)ccc3C1C2 (centres unmarked) [Compound 142, 3-(2-Hydroxyethoxy)-10-methoxy-5,6,7,8,13,13a-hexahydroisoquinolino[2,1-b]isoquinolin-9-yl benzenesulfonate]",2.64 ± 0.01,13 ± 1.96,0.62 ± 0.07 fold of control,0.52 ± 0.02 fold of control,+,++,–,–,–
"COc1ccc2c(c1)CCN1Cc3c(O)cccc3CC21 (centres unmarked) [Compound 151, 3-methoxy-5,6,7,8,13,13a-hexahydroisoquinolino[2,1-b]isoquinolin-9-ol]",–,–,–,–,–,+,–,–,–
"COc1cc2c(cc1OC)C1C(C)c3ccc(OC)c(OS(=O)(=O)c4ccccc4)c3CN1CC2 (centres unmarked) [Compound 139, 2,3,10-Trimethoxy-13-methyl-5,6,7,8,13,13a-hexahydro isoquinolino[2,1-b]isoquinolin-9-yl benzenesulfonate]",11.5 ± 1.29,3.02 ± 0.34,0.46 ± 0.04 fold of control,0.27 ± 0.02 fold of control,++/++,++/++,–,–,–
"COC(=O)c1cc2c(cc1OC)CCN1Cc3c(ccc(OC)c3OS(=O)(=O)c3ccccc3)CC21 (centres unmarked) [Compound 131, Methyl 3,10-dimethoxy-9-(phenylsulfonyloxy)-5,6,7,8,13,13a-hexahydroisoquinolino[3,2-a]isoquinoline-2-carboxylate]",0.67 ± 0.05,2.25 ± 0.13,0.87 ± 0.04 fold of control,0.72 ± 0.10 fold of control,+/+,+/+,–,–,–
"COc1cc2c(cc1OC)C1Cc3ccc(OC)c(OS(=O)(=O)c4cccc(F)c4)c3CN1CC2 (centres unmarked) [Compound 127, 2,3,10-Trimethoxy-5,6,7,8,13,13a-hexahydroisoquinolino[2,1-b]isoquinolin-9-yl 3-fluorobenzenesulfonate]",1.8 ± 0.13,2.38 ± 0.38,0.197 ± 0.014 fold of control,0.192 ± 0.016 fold of control,+++/+++,+++/+++,strongly inhibits PCSK9 expression,–,–
"COc1ccc2c(c1)CCN1Cc3c(ccc(OC)c3OS(=O)(=O)c3ccccc3)C(C)C21 (centres unmarked) [Compound 140, 3,10-Dimethoxy-13-methyl-5,6,7,8,13,13a-hexahydro isoquinolino[2,1-b]isoquinolin-9-yl benzenesulfonate]",6.65 ± 0.68,8.6 ± 2,0.43 ± 0.08 fold of control,0.51 ± 0.08 fold of control,++/++,++/++,–,–,–
"COc1ccc2c(c1)CCN1Cc3c(ccc(OC)c3OS(=O)(=O)c3cccc(F)c3)CC21 (centres unmarked) [Compound 128, 3,10-Dimethoxy-5,6,7,8,13,13a-hexahydroisoquinolino[2,1-b]isoquinolin-9-yl 3-fluorobenzenesulfonate]",7.52 ± 0.26,13.4 ± 0.46,0.96 ± 0.00 fold of control,0.86 ± 0.029 fold of control,+++/+++,+++/+++,–,–,–
"COc1cc2c(cc1C(=O)N(C)C)C1Cc3ccc(OC)c(OS(=O)(=O)c4ccccc4)c3CN1CC2 (centres unmarked) [Compound 136, 2-(N,N-dimethylcarbamoyl)-3,10-dimethoxy-5,6,7,8,13,13a-hexahydroisoquinolino[2,1-b]isoquinolin-9-yl benzenesulfonate]",0.91 ± 0.05,1.92 ± 0.32,0.48 ± 0.03 fold of control,0.62 ± 0.02 fold of control,+,++,–,–,–
"COc1cc2c(cc1OCCO)C1Cc3ccc(OC)c(OS(=O)(=O)c4ccccc4)c3CN1CC2 (centres unmarked) [Compound 143, 2-(2-hydroxyethoxy)-3,10-dimethoxy-5,6,7,8,13,13a-hexahydroisoquinolino[2,1-b]isoquinolin-9-yl benzenesulfonate]",1.87 ± 0.03,15 ± 1.68,1.09 ± 0.09 fold of control,0.48 ± 0.06 fold of control,–,++,–,–,–
"COc1ccc2c(c1)CCN1Cc3c(cccc3OS(=O)(=O)c3cccc(F)c3)CC21 (centres unmarked) [Compound 150, 3-methoxy-5,6,7,8,13,13a-hexahydroisoquinolino[2,1-b]isoquinolin-9-yl 3-fluorobenzenesulfonate]",–,–,–,–,+,++,–,–,–
"COc1ccc2c(c1OS(=O)(=O)c1ccccc1)CN1CCc3cc4c(cc3C1C2)OCCO4 (centres unmarked) [Compound 115, 11-Methoxy-6,7,8,9,14,14a-hexahydro-2H,3H-1,4-dioxano[5,6-g]isoquinolino[3,2-a]isoquinolin-10-yl benzenesulfonate]",–,–,–,–,–,+++,–,0.51 ± 0.11 fold of control,2.65 ± 0.06 fold of control
"COc1ccc2c(c1)CCN1Cc3c(ccc(OC)c3OS(=O)(=O)c3ccccc3)CC21 (centres unmarked) [Compound 116, 3,10-Dimethoxy-5,6,7,8,13,13a-hexahydroisoquinolino[2,1-b]isoquinolin-9-yl benzenesulfonate]",1.41 ± 0.04,7.19 ± 1.29,–,–,+++/+++,+++/+++,–,–,–
"COc1ccc2c(c1OS(=O)(=O)c1ccccc1)CN1CCc3cc(C)ccc3C1C2 (centres unmarked) [Compound 121, 10-Methoxy-3-methyl-5,6,7,8,13,13a-hexahydroisoquinolino[2,1-b]isoquinolin-9-yl benzenesulfonate]",3.56 ± 0.03,3.43 ± 0.81,–,–,+++,+,–,–,–
